Test results as given in US20230322767A1, “ARYL SUBSTITUTED PYRROLO-PYRIDINONES AND THERAPEUTIC USES THEREOF” (Bayer Aktiengesellschaft, priority 2020, published 2023).

Columns and labels:
[1] = target: CSNK1A1 (Homo sapiens (Human), UniProt P48729); assay: CSNK1A1 Assay 2 (ADP-Glo, 1 μM ATP); format: biochemical; details: median, read-out: CSNK1A1 Assay 2 IC50 [mol/l] (median)
In short: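 ADP-Glo luminescence, taken as ADP formed, reports activity against biotinylated phospho-peptide substrate biotin-Ahx-KRRRAL-pS-VASLPGL at 1 μM ATP.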

[2] = target: CSNK1D (Homo sapiens (Human), UniProt P48730); assay: CSNK1D Assay (ADP-Glo, 1 μM ATP); format: biochemical; details: median, read-out: CSNK1D IC50 [mol/l] (median)
CSNK1D, sequence (P48730 whole entry): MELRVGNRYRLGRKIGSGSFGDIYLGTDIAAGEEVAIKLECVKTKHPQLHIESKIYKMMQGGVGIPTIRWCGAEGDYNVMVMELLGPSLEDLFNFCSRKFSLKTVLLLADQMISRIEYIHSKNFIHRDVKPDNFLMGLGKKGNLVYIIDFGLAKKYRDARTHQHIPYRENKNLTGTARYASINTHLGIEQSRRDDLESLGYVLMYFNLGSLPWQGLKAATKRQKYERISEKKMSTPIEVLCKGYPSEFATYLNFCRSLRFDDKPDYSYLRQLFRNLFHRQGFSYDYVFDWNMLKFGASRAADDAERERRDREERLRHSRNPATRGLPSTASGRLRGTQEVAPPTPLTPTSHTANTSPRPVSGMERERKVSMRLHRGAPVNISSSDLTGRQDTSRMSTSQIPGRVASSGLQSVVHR
Description: CSNK1D-inhibitory activity of compounds of the present invention in presence of 1 μM adenosine-tri-phosphate (ATP) was quantified employing the CSNK1 D assay as described in the following paragraphs. In essence, the enzyme activity is measured by quantification of the adenosine-di-phosphate (ADP), which is generated as a co-product of the enzyme reaction, via the “ADP-Glo™ Kinase Assay” kit from the company Promega. This detection system works as follows: In a first step the ATP not consumed in the kinase reaction is quantitatively converted to cAMP employing an adenylate cyclase (“ADP-Glo-reagent”), then the adenylate cyclase is stopped and the ADP generated in the kinase reaction converted to ATP which generates in a luciferase-based reaction a glow-luminescence signal (“Kinase Detection Reagent”).
As substrate for the kinase reaction the biotinylated peptide Btn-Ahx-[…] (C-terminus in amide form) was used which can be purchased e.g. from the company Biosyntan (Berlin-Buch, Germany).
For the assay 50 nl of a 100 fold concentrated solution of the test compound in DMSO was pipetted into a white 1536-well microtiter plate (Greiner Bio-One, Frickenhausen, Germany), 2 μL of a solution of CSNK1D in aqueous assay buffer [50 mM HEPES pH 7.5, 10% (v/v) glycerol, 10 mM MgCl2, 50 mM NaCl, 1 mM dithiothreitol, 0.01% (w/v) bovine serum albumin, 0.01% (v/v) Triton X-100] were added and the mixture was incubated for 15 min at 22° C. to allow pre-binding of the test compounds to the enzyme before the start of the kinase reaction. […] The concentration of CSNK1D was adjusted depending of the activity of the enzyme lot and was chosen appropriate to have the assay in the linear range, a typical concentration is about 0.5 ng/μL. The reaction was stopped by the addition of 2.5 μL of “ADP-Glo-reagent” (1:1.5 fold diluted with water) and the resulting mixture was incubated at 22° C. for 1 h to convert the ATP not consumed in the kinase reaction completely […]. Subsequently 2.5 μL of the “kinase detection reagent” (1.2 fold more concentrated than recommended by the producer) were added, the resulting mixture was incubated at 22° C. for 1 h and then the luminescence measured with a suitable measurement instrument (e.g. Viewlux™ from Perkin-Elmer). The amount of emitted light was taken as a measure for the amount of ADP generated and thereby for the activity of the CSNK1D.

CSNK1A1, sequence (P48729 whole entry): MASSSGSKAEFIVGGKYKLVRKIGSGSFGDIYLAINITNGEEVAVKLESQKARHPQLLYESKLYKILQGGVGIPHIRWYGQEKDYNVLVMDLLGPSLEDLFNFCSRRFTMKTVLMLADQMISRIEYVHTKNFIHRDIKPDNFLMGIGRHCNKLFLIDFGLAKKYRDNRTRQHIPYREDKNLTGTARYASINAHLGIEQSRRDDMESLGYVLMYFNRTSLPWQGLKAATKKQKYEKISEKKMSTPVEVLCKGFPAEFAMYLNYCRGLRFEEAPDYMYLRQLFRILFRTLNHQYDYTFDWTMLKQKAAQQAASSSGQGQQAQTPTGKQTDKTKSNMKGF

Row | Structure (SMILES) | IC50 [1] [nM] | IC50 [2] [nM]
1 | CC1(C)CNC(=O)c2c1[nH]c(-c1ccnc(NC(=O)C(CC(F)F)c3ccc(F)cc3)c1)c2-c1ccccc1 (single isomer, unassigned) [Example 45, N-[4-(7,7-dimethyl-4-oxo-3-phenyl-4,5,6,7-tetrahydro-1H-pyrrolo[3,2-c]pyridin-2-yl)pyridin-2-yl]-4,4-difluoro-2-(4-fluorophenyl)butanamide] | 2 | 2.7
2 | CC(C(=O)Nc1cc(-c2[nH]c3c(c2-c2ccccc2)C(=O)NCC3(C)C)ccn1)c1ccc(F)cc1 (single isomer, unassigned) [Example 47, N-[4-(7,7-dimethyl-4-oxo-3-phenyl-4,5,6,7-tetrahydro-1H-pyrrolo[3,2-c]pyridin-2-yl)pyridin-2-yl]-2-(4-fluorophenyl)propanamide] | 13 | 9.6
3 | CC(C(=O)Nc1cc(-c2[nH]c3c(c2-c2ccccc2)C(=O)NCC3(C)C)ccn1)c1ccc(F)cc1 (single isomer, unassigned) [Example 48, N-[4-(7,7-dimethyl-4-oxo-3-phenyl-4,5,6,7-tetrahydro-1H-pyrrolo[3,2-c]pyridin-2-yl)pyridin-2-yl]-2-(4-fluorophenyl)propanamide] | 1.8 | 2.9
4 | CC(C(=O)Nc1cc(-c2[nH]c3c(CC(F)(F)F)cn(C)c(=O)c3c2-c2ccccc2)ccn1)c1ccc(F)cc1 (single isomer, unassigned; (+)) [Example 15, (+)-2-(4-fluorophenyl)-N-{4-[5-methyl-4-oxo-3-phenyl-7-(2,2,2-trifluoroethyl)-4,5-dihydro-1H-pyrrolo[3,2-c]pyridin-2-yl]pyridin-2-yl}propanamide] | 2.3 | 2.8
5 | Cn1cc(CC(F)(F)F)c2[nH]c(-c3ccnc(NC(=O)C(CC(F)F)c4ccc(F)cc4)c3)c(-c3ccccc3)c2c1=O (single isomer, unassigned; (+)) [Example 20, (+)-4,4-difluoro-2-(4-fluorophenyl)-N-{4-[5-methyl-4-oxo-3-phenyl-7-(2,2,2-trifluoroethyl)-4,5-dihydro-1H-pyrrolo[3,2-c]pyridin-2-yl]pyridin-2-yl}butanamide] | 14 | 12
6 | CC(C(=O)Nc1cc(-c2[nH]c3c(CC(F)(F)F)cn(C)c(=O)c3c2-c2ccc(F)cc2)ccn1)c1ccc(F)cc1 (single isomer, unassigned; (+)) [Example 24, (+)-2-(4-fluorophenyl)-N-{4-[3-(4-fluorophenyl)-5-methyl-4-oxo-7-(2,2,2-trifluoroethyl)-4,5-dihydro-1H-pyrrolo[3,2-c]pyridin-2-yl]pyridin-2-yl}propanamide] | 4.5 | 4
7 | Cc1cn(C)c(=O)c2c(-c3ccc(F)cc3)c(-c3ccnc(NC(=O)C(C)c4ccc(F)cc4)c3)[nH]c12 (single isomer, unassigned; (+)) [Example 32, (+)-2-(4-fluorophenyl)-N-{4-[3-(4-fluorophenyl)-5,7-dimethyl-4-oxo-4,5-dihydro-1H-pyrrolo[3,2-c]pyridin-2-yl]pyridin-2-yl}propanamide] | 4.4 | 3.6
8 | Cc1cn(C)c(=O)c2c(-c3ccc(F)cc3)c(-c3ccnc(NC(=O)C(CC(F)F)c4ccc(F)cc4)c3)[nH]c12 (single isomer, unassigned; (+)) [Example 36, (+)-4,4-difluoro-2-(4-fluorophenyl)-N-{4-[3-(4-fluorophenyl)-5,7-dimethyl-4-oxo-4,5-dihydro-1H-pyrrolo[3,2-c]pyridin-2-yl]pyridin-2-yl}butanamide] | 3.5 | 3.5
9 | CN1C(=O)c2c([nH]c(-c3ccnc(NC(=O)C(CC(F)F)c4ccc(F)cc4)c3)c2-c2ccccc2)CC12CCC2 (single isomer, unassigned; (+)) [Example 51, (+)-4,4-difluoro-2-(4-fluorophenyl)-N-[4-(5′-methyl-4′-oxo-3′-phenyl-1′,4′,5′,7′-tetrahydrospiro-[cyclobutane-1,6′-pyrrolo[3,2-c]pyridin]-2′-yl)pyridin-2-yl]butanamide] | 1.8 | 2.4
10 | CC(C(=O)Nc1cc(-c2[nH]c3c(c2-c2ccccc2)C(=O)N(C)C2(CCC2)C3)ccn1)c1ccc(F)cc1 (single isomer, unassigned; (+)) [Example 54, (+)-2-(4-fluorophenyl)-N-[4-(5′-methyl-4′-oxo-3′-phenyl-1′,4′,5′,7′-tetrahydrospiro[cyclobutane-1,6′-pyrrolo[3,2-c]pyridin]-2′-yl)pyridin-2-yl]propanamide] | 1.6 | 3.6
11 | CC(C(=O)Nc1cc(-c2[nH]c3c(CC(F)(F)F)cn(C)c(=O)c3c2-c2ccccc2)ccn1)c1ccc(F)cc1 (single isomer, unassigned; (-)) [Example 16, (−)-2-(4-fluorophenyl)-N-{4-[5-methyl-4-oxo-3-phenyl-7-(2,2,2-trifluoroethyl)-4,5-dihydro-1H-pyrrolo[3,2-c]pyridin-2-yl]pyridin-2-yl}propanamide] | 7.7 | 4.4
12 | Cn1cc(CC(F)(F)F)c2[nH]c(-c3ccnc(NC(=O)C(CC(F)F)c4ccc(F)cc4)c3)c(-c3ccccc3)c2c1=O (single isomer, unassigned; (-)) [Example 19, (−)-4,4-difluoro-2-(4-fluorophenyl)-N-{4-[5-methyl-4-oxo-3-phenyl-7-(2,2,2-trifluoroethyl)-4,5-dihydro-1H-pyrrolo[3,2-c]pyridin-2-yl]pyridin-2-yl}butanamide] | 22 | 14
13 | CC(C(=O)Nc1cc(-c2[nH]c3c(CC(F)(F)F)cn(C)c(=O)c3c2-c2ccc(F)cc2)ccn1)c1ccc(F)cc1 (single isomer, unassigned; (-)) [Example 23, (−)-2-(4-fluorophenyl)-N-{4-[3-(4-fluorophenyl)-5-methyl-4-oxo-7-(2,2,2-trifluoroethyl)-4,5-dihydro-1H-pyrrolo[3,2-c]pyridin-2-yl]pyridin-2-yl}propanamide] | 85 | 37
14 | Cc1cn(C)c(=O)c2c(-c3ccc(F)cc3)c(-c3ccnc(NC(=O)C(C)c4ccc(F)cc4)c3)[nH]c12 (single isomer, unassigned; (-)) [Example 31, (−)-2-(4-fluorophenyl)-N-{4-[3-(4-fluorophenyl)-5,7-dimethyl-4-oxo-4,5-dihydro-1H-pyrrolo[3,2-c]pyridin-2-yl]pyridin-2-yl}propanamide] | 53 | 14
15 | Cc1cn(C)c(=O)c2c(-c3ccc(F)cc3)c(-c3ccnc(NC(=O)C(CC(F)F)c4ccc(F)cc4)c3)[nH]c12 (single isomer, unassigned; (-)) [Example 35, (−)-4,4-difluoro-2-(4-fluorophenyl)-N-{4-[3-(4-fluorophenyl)-5,7-dimethyl-4-oxo-4,5-dihydro-1H-pyrrolo[3,2-c]pyridin-2-yl]pyridin-2-yl}butanamide] | 66 | 22
16 | CN1C(=O)c2c([nH]c(-c3ccnc(NC(=O)C(CC(F)F)c4ccc(F)cc4)c3)c2-c2ccccc2)CC12CCC2 (single isomer, unassigned; (-)) [Example 50, (−)-4,4-difluoro-2-(4-fluorophenyl)-N-[4-(5′-methyl-4′-oxo-3′-phenyl-1′,4′,5′,7′-tetrahydrospiro-[cyclobutane-1,6′-pyrrolo[3,2-c]pyridin]-2′-yl)pyridin-2-yl]butanamide] | 12 | 9.8
